# In publication PMC9645260, “Small-molecule inhibitors of P-Rex guanine-nucleotide exchange factors” (Small GTPases, 2022):
# Test system: PAE cells expressing eGFP-P-Rex1
# Experiment: PAE cell morphology after PDGF stimulation
# Assay type: cell-based, pig
# Settings: 1 µM for 15 min
# Method: Pig aortic endothelial (PAE) cells, which stably overexpress PDGF receptor beta, were grown at 37°C in a humidified 5% CO2 atmosphere in Ham’s F-12 medium with L-glutamine (PAA) supplemented with 10% FBS, 100 units/ml penicillin and 100 µg/ml streptomycin (complete medium). Cells were passaged by tryptic digest 1:4 approximately every 2 days. PAE cells were transfected with eGFP-P-Rex1 by electroporation as described, resuspended in complete medium without antibiotics and plated onto sterile 22 mm glass coverslips in 6-well plates. After 12 h, cells were washed twice in Ham’s F-12 and serum starved in Ham’s F-12 containing 1% fatty acid-free BSA) for 8 h. PREX-in1 was added to the medium to a concentration of 1 µM, or cells were mock-treated with vehicle control (0.05% DMSO), for 15 min at 37°C. Cells were stimulated with 10 ng/ml PDGF for 10 min, or were mock-stimulated, and then fixed in 4% paraformaldehyde, 50 mM Pipes pH 6.8, 1 mM EGTA, 1 mM MgCl2 for 15 min at RT. Cells were washed in PBS, permeabilized for 10 min in PBS containing 0.2% Triton X-100, washed twice in PBS and once in PBS, 0.1% BSA. The F-actin cytoskeleton was stained by incubating samples with TRITC-Phalloidin (Sigma P1951) in PBS, 0.1% BSA for 45 min at RT in the dark. Coverslips were washed twice in PBS, rinsed once in water, and mounted onto slides using Aqua Polymount (Polysciences, Inc.). Samples were imaged using an AxioImager D2 fluorescence microscope (Zeiss, ×200 magnification), taking 15–20 representative images for each duplicate coverslip. Images were analysed blinded to experimental design using ImageJ, for both manual and automated analysis. Using manual analysis, each cell was assigned to a morphology category (basal, with lamellipodia and membrane ruffles, spread with ruffles). With automated analysis, the surface area and circularity of all cells were quantified using the ‘Set Measurements’ analysis tools of ImageJ after assigning a mask to each cell. To determine the proportion of spread cells, cells with a surface area more than 50% larger than the mean under basal conditions (1246 μm^2) were considered spread. eGFP-P-Rex1 expressing cells were compared to non-green fluorescent cells on the same coverslip.
compound,measurement,setting,value
"COc1ccc(-c2[nH]nc3c2C(c2ccc(-c4ccc(Cl)cc4)o2)C(C#N)=C(N)O3)cc1 (stereo not shown) [PREX-in1, 6-amino-4-[5-(4-chlorophenyl)-2-furyl]-3-(4-methoxyphenyl)-2,4-dihydropyrano[2,3-c]pyrazole-5-carbonitrile]",morphology of mock-transfected cells,,did not affect the morphology
same,P-Rex1 dependent spreading of PDGF-stimulated cells,10 ng/ml PDGF,did inhibit
same,cell circularity,automated analysis,lack of effect
same,proportion of cells with lamellipodia or membrane ruffles,manual analysis,did not affect the proportion of cells with lamellipodia or membrane ruffles
